Laboratory results reported in patent publication US11965122B2, “Method for visually enhancing the experience of an audience during a performance” (PROLUME, LTD., priority 2012, dated 2024).

How the values were obtained:
[1] = test system: calcium activated photoprotein (CAP); details: cited from earlier work; for RLC*: relative to native = 1.00; for Relative Intensity †: relative to native = 1
[2] = test system: Rabbit conjunctiva; assay: Coelenterazine applied directly in Rabbit conjunctiva; type: in vivo; details: multiple sets applied directly in Rabbit conjunctiva, even at high concentrations
From the text: Denuded and scratched corneal surfaces should release more calcium then a sealed intact healthy cornea and a CAP may be used alone or in conjunction with fluorescein dye to reveal the exact location of the foreign body or severity of the ocular corneal scratch.

[3] = Brightness of ultraviolet producing Coelenterazine analog
From the text: Diagnosis of conjunctiva pathology and corneal scratches and other acute ocular emergencies such as foreign objects is best performed using an ultraviolet lamp and fluorescein dye. However there are situations, such as camping, or in poorer nations where electricity and ultraviolet lamps are not available. Another embodiment of this invention is a kit containing fluorescein dye, and a CARP manufactured using a ultraviolet producing Coelenterazine analog such as 400a or better because it is much brighter, is methoxy-eCoelenterazine analog contained and stabilized within a freeze dried CARP which can be used for eye examinations in the field.

[4] = test system: Renilla muelleri Luciferase; assay: Luminescent activity of Renilla muelleri Luciferase with Coelenterazine analogues; type: biochemical; details: integrated over 10 sec
From the text: FIG. 21 is luminescent activity of Renilla muelleri Luciferase with methoxy eCTZ and methoxy eCTZf.

Oc1ccc(Cc2nc3c(Cc4ccccc4)nc(-c4ccc(O)cc4)cn3c2O)cc1 [Coelenterazine]
Half-Rise Time ‡ [1]: 6 to 30 ms | RLC* [1]: 1.00 | Relative Intensity † [1]: 1 | ocular injury [2]: failed to produce any ocular injury

O=c1c(Cc2ccc(O)cc2)nc2c(CC3CCCC3)[nH]c(-c3ccc(O)cc3)cn1-2 [cp]
Half-Rise Time ‡ [1]: 2 to 5 ms | RLC* [1]: 0.63 | Relative Intensity † [1]: 28

O=c1c(Cc2ccc(F)cc2)nc2c(Cc3ccccc3)[nH]c(-c3ccc(O)cc3)cn1-2 [f]
Half-Rise Time ‡ [1]: 6 to 30 ms | RLC* [1]: 0.80 | Relative Intensity † [1]: 20

O=c1c(Cc2ccccc2)nc2c(Cc3ccccc3)[nH]c(-c3ccc(O)cc3)cn1-2 [h]
Half-Rise Time ‡ [1]: 6 to 30 ms | RLC* [1]: 0.75 | Relative Intensity † [1]: 16

O=c1c(Cc2ccccc2)nc2c(CC3CCCC3)[nH]c(-c3ccc(O)cc3)cn1-2 [hcp]
Half-Rise Time ‡ [1]: 2 to 5 ms | RLC* [1]: 0.65 | Relative Intensity † [1]: 500

Coelenterazine-Iodide
duration of light emission ([1]; CAP manufactured with the analog, delayed spring-opening, over tens of minutes): prolongs light emission

Methoxy-e-Coelenterazine [Methoxy eCTZ]
brightness compared with 400a [3]: much brighter | light-output relative to methoxy eCTZf [4]: approx. two-fold
